{"source": "PubChem BioAssay (NCI)", "experiment_in_all_cases": "DTP human tumour cell line panel, 384-well format", "key": {"OVCAR-4 ovarian": {"test_system": "OVCAR-4 ovarian"}, "HOP-92 NSCLC": {"test_system": "HOP-92 NSCLC"}, "SF-295 CNS": {"test_system": "SF-295 CNS"}, "NCI/ADR-RES ovarian": {"test_system": "NCI/ADR-RES ovarian"}, "UACC-62 melanoma": {"test_system": "UACC-62 melanoma"}, "HCT-15 colon": {"test_system": "HCT-15 colon"}, "UO-31 renal": {"test_system": "UO-31 renal"}, "NCI-H322M lung": {"test_system": "NCI-H322M lung"}, "LOX IMVI melanoma": {"test_system": "LOX IMVI melanoma"}, "OVCAR-3 ovarian": {"test_system": "OVCAR-3 ovarian"}, "786-0 renal": {"test_system": "786-0 renal"}, "SK-MEL-28 melanoma": {"test_system": "SK-MEL-28 melanoma"}, "HOP-62 NSCLC": {"test_system": "HOP-62 NSCLC"}, "COLO 205 colon": {"test_system": "COLO 205 colon"}, "CCRF-CEM leukemia": {"test_system": "CCRF-CEM leukemia"}, "SR leukemia": {"test_system": "SR leukemia"}, "MDA-MB-435 melanoma": {"test_system": "MDA-MB-435 melanoma"}, "MDA-MB-468 breast": {"test_system": "MDA-MB-468 breast"}, "NCI-H522 lung": {"test_system": "NCI-H522 lung"}, "MDA-MB-231 breast": {"test_system": "MDA-MB-231 breast"}, "NCI-H226 lung": {"test_system": "NCI-H226 lung"}, "HCT-116 colon": {"test_system": "HCT-116 colon"}, "MALME-3M melanoma": {"test_system": "MALME-3M melanoma"}, "NCI-H23 lung": {"test_system": "NCI-H23 lung"}, "HL-60(TB) leukemia": {"test_system": "HL-60(TB) leukemia"}, "HT29 colon": {"test_system": "HT29 colon"}, "TK-10 renal": {"test_system": "TK-10 renal"}, "NCI-H460 NSCLC": {"test_system": "NCI-H460 NSCLC"}, "RPMI-8226 leukemia": {"test_system": "RPMI-8226 leukemia"}, "RXF 393 renal": {"test_system": "RXF 393 renal"}, "OVCAR-5 ovarian": {"test_system": "OVCAR-5 ovarian"}, "A498 renal": {"test_system": "A498 renal"}, "SNB-19 CNS": {"test_system": "SNB-19 CNS"}, "SK-OV-3 ovarian": {"test_system": "SK-OV-3 ovarian"}, "M14 melanoma": {"test_system": "M14 melanoma"}, "UACC-257 melanoma": {"test_system": "UACC-257 melanoma"}, "K-562 leukemia": {"test_system": "K-562 leukemia"}, "OVCAR-8 ovarian": {"test_system": "OVCAR-8 ovarian"}, "HCC-2998 colon": {"test_system": "HCC-2998 colon"}, "HS 578T breast": {"test_system": "HS 578T breast"}, "U251 glioblastoma": {"test_system": "U251 glioblastoma"}, "PC-3 prostate": {"test_system": "PC-3 prostate"}, "A549 NSCLC": {"test_system": "A549 NSCLC"}, "MCF7 breast": {"test_system": "MCF7 breast"}, "SF-539 CNS": {"test_system": "SF-539 CNS"}, "EKVX NSCLC": {"test_system": "EKVX NSCLC"}, "DU-145 prostate": {"test_system": "DU-145 prostate"}}, "note": "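GI50 marks 50% less growth. TGI is the concentration that stops growth completely.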", "data": [{"compound": "CS(=O)(=O)CCNCc1ccc(-c2ccc3ncnc(Nc4ccc(OCc5cccc(F)c5)c(Cl)c4)c3c2)o1", "values": [{"measurement": "GI50", "setting": "OVCAR-4 ovarian", "result": 1720, "unit": "nM"}, {"measurement": "TGI", "setting": "OVCAR-4 ovarian", "result": 3190, "unit": "nM"}, {"measurement": "GI50", "setting": "HOP-92 NSCLC", "result": 1370, "unit": "nM"}, {"measurement": "TGI", "setting": "HOP-92 NSCLC", "result": 2680, "unit": "nM"}, {"measurement": "GI50", "setting": "SF-295 CNS", "result": 1960, "unit": "nM"}, {"measurement": "TGI", "setting": "SF-295 CNS", "result": 3850, "unit": "nM"}, {"measurement": "GI50", "setting": "NCI/ADR-RES ovarian", "result": 1560, "unit": "nM"}, {"measurement": "TGI", "setting": "NCI/ADR-RES ovarian", "result": 3470, "unit": "nM"}, {"measurement": "GI50", "setting": "UACC-62 melanoma", "result": 1950, "unit": "nM"}, {"measurement": "TGI", "setting": "UACC-62 melanoma", "result": 3430, "unit": "nM"}, {"measurement": "GI50", "setting": "HCT-15 colon", "result": 1450, "unit": "nM"}, {"measurement": "TGI", "setting": "HCT-15 colon", "result": 2790, "unit": "nM"}, {"measurement": "GI50", "setting": "UO-31 renal", "result": 1090, "unit": "nM"}, {"measurement": "TGI", "setting": "UO-31 renal", "result": 3890, "unit": "nM"}, {"measurement": "GI50", "setting": "NCI-H322M lung", "result": 179, "unit": "nM"}, {"measurement": "TGI", "setting": "NCI-H322M lung", "result": 1140, "unit": "nM"}, {"measurement": "GI50", "setting": "LOX IMVI melanoma", "result": 1800, "unit": "nM"}, {"measurement": "TGI", "setting": "LOX IMVI melanoma", "result": 3210, "unit": "nM"}, {"measurement": "GI50", "setting": "OVCAR-3 ovarian", "result": 1580, "unit": "nM"}, {"measurement": "TGI", "setting": "OVCAR-3 ovarian", "result": 2960, "unit": "nM"}, {"measurement": "GI50", "setting": "786-0 renal", "result": 1340, "unit": "nM"}, {"measurement": "TGI", "setting": "786-0 renal", "result": 2620, "unit": "nM"}, {"measurement": "GI50", "setting": "SK-MEL-28 melanoma", "result": 1800, "unit": "nM"}, {"measurement": "TGI", "setting": "SK-MEL-28 melanoma", "result": 3210, "unit": "nM"}, {"measurement": "GI50", "setting": "HOP-62 NSCLC", "result": 2300, "unit": "nM"}, {"measurement": "TGI", "setting": "HOP-62 NSCLC", "result": 4950, "unit": "nM"}, {"measurement": "GI50", "setting": "COLO 205 colon", "result": 3780, "unit": "nM"}, {"measurement": "TGI", "setting": "COLO 205 colon", "result": 9050, "unit": "nM"}, {"measurement": "GI50", "setting": "CCRF-CEM leukemia", "result": 1680, "unit": "nM"}, {"measurement": "TGI", "setting": "CCRF-CEM leukemia", "result": 3050, "unit": "nM"}, {"measurement": "GI50", "setting": "SR leukemia", "result": 2090, "unit": "nM"}, {"measurement": "TGI", "setting": "SR leukemia", "result": 3530, "unit": "nM"}, {"measurement": "GI50", "setting": "MDA-MB-435 melanoma", "result": 4970, "unit": "nM"}, {"measurement": "TGI", "setting": "MDA-MB-435 melanoma", "result": 9250, "unit": "nM"}, {"measurement": "GI50", "setting": "MDA-MB-468 breast", "result": 45.2, "unit": "nM"}, {"measurement": "TGI", "setting": "MDA-MB-468 breast", "result": 260, "unit": "nM"}, {"measurement": "GI50", "setting": "NCI-H522 lung", "result": 102, "unit": "nM"}, {"measurement": "TGI", "setting": "NCI-H522 lung", "result": 1480, "unit": "nM"}, {"measurement": "GI50", "setting": "MDA-MB-231 breast", "result": 1930, "unit": "nM"}, {"measurement": "TGI", "setting": "MDA-MB-231 breast", "result": 3400, "unit": "nM"}, {"measurement": "GI50", "setting": "NCI-H226 lung", "result": 2120, "unit": "nM"}, {"measurement": "TGI", "setting": "NCI-H226 lung", "result": 4750, "unit": "nM"}, {"measurement": "GI50", "setting": "HCT-116 colon", "result": 1850, "unit": "nM"}, {"measurement": "TGI", "setting": "HCT-116 colon", "result": 3450, "unit": "nM"}, {"measurement": "GI50", "setting": "MALME-3M melanoma", "result": 1830, "unit": "nM"}, {"measurement": "TGI", "setting": "MALME-3M melanoma", "result": 3230, "unit": "nM"}, {"measurement": "GI50", "setting": "NCI-H23 lung", "result": 2070, "unit": "nM"}, {"measurement": "TGI", "setting": "NCI-H23 lung", "result": 4070, "unit": "nM"}, {"measurement": "GI50", "setting": "HL-60(TB) leukemia", "result": 2260, "unit": "nM"}, {"measurement": "TGI", "setting": "HL-60(TB) leukemia", "result": 3730, "unit": "nM"}, {"measurement": "GI50", "setting": "HT29 colon", "result": 1850, "unit": "nM"}, {"measurement": "TGI", "setting": "HT29 colon", "result": 3270, "unit": "nM"}, {"measurement": "GI50", "setting": "TK-10 renal", "result": 644, "unit": "nM"}, {"measurement": "TGI", "setting": "TK-10 renal", "result": 4500, "unit": "nM"}, {"measurement": "GI50", "setting": "NCI-H460 NSCLC", "result": 1860, "unit": "nM"}, {"measurement": "TGI", "setting": "NCI-H460 NSCLC", "result": 3290, "unit": "nM"}, {"measurement": "GI50", "setting": "RPMI-8226 leukemia", "result": 1850, "unit": "nM"}, {"measurement": "TGI", "setting": "RPMI-8226 leukemia", "result": 3250, "unit": "nM"}, {"measurement": "GI50", "setting": "RXF 393 renal", "result": 1460, "unit": "nM"}, {"measurement": "TGI", "setting": "RXF 393 renal", "result": 2790, "unit": "nM"}, {"measurement": "GI50", "setting": "OVCAR-5 ovarian", "result": 2740, "unit": "nM"}, {"measurement": "TGI", "setting": "OVCAR-5 ovarian", "result": 7500, "unit": "nM"}, {"measurement": "GI50", "setting": "A498 renal", "result": 1260, "unit": "nM"}, {"measurement": "TGI", "setting": "A498 renal", "result": 2520, "unit": "nM"}, {"measurement": "GI50", "setting": "SNB-19 CNS", "result": 4430, "unit": "nM"}, {"measurement": "TGI", "setting": "SNB-19 CNS", "result": 9080, "unit": "nM"}, {"measurement": "GI50", "setting": "SK-OV-3 ovarian", "result": 785, "unit": "nM"}, {"measurement": "TGI", "setting": "SK-OV-3 ovarian", "result": 5170, "unit": "nM"}, {"measurement": "GI50", "setting": "M14 melanoma", "result": 1930, "unit": "nM"}, {"measurement": "TGI", "setting": "M14 melanoma", "result": 3350, "unit": "nM"}, {"measurement": "GI50", "setting": "UACC-257 melanoma", "result": 1990, "unit": "nM"}, {"measurement": "TGI", "setting": "UACC-257 melanoma", "result": 3420, "unit": "nM"}, {"measurement": "GI50", "setting": "K-562 leukemia", "result": 1690, "unit": "nM"}, {"measurement": "TGI", "setting": "K-562 leukemia", "result": 3070, "unit": "nM"}, {"measurement": "GI50", "setting": "OVCAR-8 ovarian", "result": 1720, "unit": "nM"}, {"measurement": "TGI", "setting": "OVCAR-8 ovarian", "result": 3730, "unit": "nM"}, {"measurement": "GI50", "setting": "HCC-2998 colon", "result": 1810, "unit": "nM"}, {"measurement": "TGI", "setting": "HCC-2998 colon", "result": 3220, "unit": "nM"}, {"measurement": "GI50", "setting": "HS 578T breast", "result": 1970, "unit": "nM"}, {"measurement": "TGI", "setting": "HS 578T breast", "result": 3480, "unit": "nM"}, {"measurement": "GI50", "setting": "U251 glioblastoma", "result": 1840, "unit": "nM"}, {"measurement": "TGI", "setting": "U251 glioblastoma", "result": 3350, "unit": "nM"}, {"measurement": "GI50", "setting": "PC-3 prostate", "result": 1750, "unit": "nM"}, {"measurement": "TGI", "setting": "PC-3 prostate", "result": 3280, "unit": "nM"}, {"measurement": "GI50", "setting": "A549 NSCLC", "result": 1360, "unit": "nM"}, {"measurement": "TGI", "setting": "A549 NSCLC", "result": 2690, "unit": "nM"}, {"measurement": "GI50", "setting": "MCF7 breast", "result": 1670, "unit": "nM"}, {"measurement": "TGI", "setting": "MCF7 breast", "result": 3060, "unit": "nM"}, {"measurement": "GI50", "setting": "SF-539 CNS", "result": 1820, "unit": "nM"}, {"measurement": "TGI", "setting": "SF-539 CNS", "result": 3220, "unit": "nM"}, {"measurement": "GI50", "setting": "EKVX NSCLC", "result": 777, "unit": "nM"}, {"measurement": "TGI", "setting": "EKVX NSCLC", "result": 3130, "unit": "nM"}, {"measurement": "GI50", "setting": "DU-145 prostate", "result": 1390, "unit": "nM"}, {"measurement": "TGI", "setting": "DU-145 prostate", "result": 3380, "unit": "nM"}]}]}
